Results taken from a melting point compilation (Tetko et al.; mined from patent text by program, amines drawn as free bases though some values may be those of a salt).

Row | SMILES | melting point [°C]
1 | O=C(O)c1ccc2c3c(ccc(C(O)=NC4CCCCC4)c13)CC2 | 264 to 265
2 | N#Cc1cc(F)c(O)nc1O | 135 to 140
3 | COc1ccc(-c2c(C(=O)c3ccccc3)c(CSc3nccn3C)nc3cc(OC)c(OC)cc23)cc1OC | 185 to 186
4 | O=C(CN1CCOCC1)NC(c1ccccc1)C1(c2ccc(Cl)cc2)CCC1 (stereo unspecified) | 95 to 97
5 | CC(C)(C#N)c1ccc(C(=O)Nc2cn3cc(Cl)ccc3n2)cc1 | 248 to 250
6 | CC1CCNC(=C2C(=O)CC(C)(C)CC2=O)C1 (stereo unspecified) | 174
7 | CCNC(=O)NNC=NC(=O)c1nc(Cl)c(NC(C)C)nc1N | 148 to 150
8 | C=Cc1cccc2[nH]cc(S(=O)(=O)c3ccccc3)c12 | 125 to 128
9 | N=c1sc2cc(OC(F)(F)F)ccc2n1CC(N)=O | 228
10 | CCCCCCCc1ccc(C(=O)Cc2cccc(C#N)c2)cc1 | 68
11 | Cc1nc(-n2ccc(OCc3ccc(C(F)(F)F)o3)cc2=O)sc1C(=O)NCc1ccccc1 | 214 to 216
12 | CN(C)CC1=C(Nc2ccccc2)CC(C)(C)CC1=O | 111 to 112
13 | CCCCCCCCCCOc1ccc([N+](=O)[O-])cc1OCCCCCCCCCC | 60 to 61
14 | O=C(O)CCCOc1cccc(CCCCCCOc2cc(-c3ccsc3)cc(-c3ccc4c(c3)OCO4)c2)c1CCC(=O)O | 110 to 112
15 | NCCc1ccc(OCc2ccccc2)cc1 | 58.7 to 59.6
16 | COC(=O)CSC(c1ccccc1OC)c1ccccc1OC | 65 to 67
17 | CC(=O)NCc1ccc(CC(=NNc2ccc(Br)cn2)c2ccccc2)o1 | 176
18 | CCCCCCCN(CCCCCSc1nc(-c2ccccc2)c(-c2ccccc2)[nH]1)C(=N)Nc1ccccc1 | 135 to 136
19 | O=[N+]([O-])c1cnccc1NCCN1CCC(Nc2nc3ccccc3n2Cc2ccc(CO)o2)CC1 | 191
20 | COc1ccc(OCc2ccc3ccccc3n2)cc1 | 79 to 80
21 | CC(C)c1nn(-c2nc3ccccc3s2)c(-c2ccc(F)cc2)c1Br | 146 to 147
22 | NS(=O)(=O)c1ccc(-n2ncc(F)c2-c2ccccc2)cc1 | 194
23 | CCOC(=O)NNC(=O)NCC(=O)OC | 116 to 121
24 | FC(F)(F)c1cccc(-c2snnc2S)c1 | > 200
25 | NC(=O)Cc1cccc2c(-c3ccccc3)onc12 | 191 to 192
26 | CC1Cn2c(nc3c(cnn3C)c2=O)S1 (stereo unspecified) | 178 to 179
27 | COc1cc(OC(c2ccccc2)c2ccccc2)ccc1/C=C/c1cc(/C=C/c2ccc3cc[nH]c3c2)[nH]n1 | 114 to 119

Row | SMILES | melting point [°C]
28 | CN1CCN(c2cccc3ccc(NC(=O)Nc4ccccc4)cc23)CC1 | 213 to 214
29 | Nc1ccc(F)c(-c2ccc3ncccc3c2)c1F | 178 to 179
30 | N#Cc1ccc(N2CCC(C(N)=O)CC2)c2ccccc12 | 249 to 250
31 | O=S(=O)(c1ccc(Cl)cc1)C(C/C=C\CO)c1cc(F)ccc1F (stereo unspecified) | 60 to 63
32 | O=C(OCC(F)(F)F)C(O)C(O)C(=O)OCC(F)(F)F (stereo unspecified) | 77 to 79
33 | COc1ccc(CN(C)CCc2ccc(NC(=O)c3cccc4c(=O)c5cc(F)ccc5sc34)cc2)cc1OC | 205
34 | COc1cc2c(cc1OC)C(c1ccnc(-n3nc(-c4cccnc4)c4ccccc4c3=O)c1)=N[C@H](CO)C2 | 235 to 238
35 | C=CCOC1(C(F)(F)F)CN(C2CC2)C(=O)Nc2ccc(Cl)cc21 (stereo unspecified) | 120 to 121
36 | CCOC(=O)N1CCN(C2=Nc3ccccc3Cc3ccccc32)CC1 | 137 to 138
37 | O=C(COc1ccc(Cl)cc1)N1CCc2occc2C1CN1CCC(O)C1 (stereo unspecified) | 43 to 45
38 | Oc1cc(-c2ccc(F)cc2)nc(-c2ccccn2)n1 | 197 to 198
39 | CCOC(=O)/C(=N\O)N1N=C(N)C(Cc2ccccc2)C1=O (stereo unspecified) | 102 to 108
40 | CS(=O)(=O)c1c(F)cc(C2=C(c3ccccc3)C(=O)OC2)cc1F | 204
41 | Nc1nccc(C=Cc2ccc([N+](=O)[O-])cc2)n1 | 214 to 216
42 | COc1cc(OCc2ccccn2)ccc1/C=C/c1cc(/C=C/c2ccc3[nH]cnc3c2)n[nH]1 | 135 to 142
43 | CCOc1ccc(-c2nc(-c3cccc(C#N)n3)cs2)cc1OCC | 134 to 136
44 | CC1(C)[C@@H](CN2CCCS2(=O)=O)CC[C@@]1(C)NCC(=O)N1C[C@@H](F)C[C@H]1C#N | 126 to 128
45 | CCOc1ccc(S(=O)(=O)Nc2cccnc2Nc2ccccc2)cc1 | 161 to 162
46 | O=C(O)CCc1cc2cc(-c3ccc(C(F)(F)F)cc3)ccc2n1S(=O)(=O)c1ccccc1 | 162
47 | CC(Cn1ccnc1)Cn1c(=O)c2ccc(Cl)cc2n(C)c1=O (stereo unspecified) | 206 to 209
48 | CN1C(=O)CCC2(C)c3ccc(C(c4ccccc4)c4ccccc4)cc3CCC12 (stereo unspecified) | 145 to 146
49 | CC(=O)C=Cc1c(C)c(C)c(C)c2c1OC(C)(C)C2 | 125
50 | CC1(C)OC(=O)Nc2ccc(-c3cc(Cl)cc(C#N)c3)cc21 | 256 to 257
51 | CNC(=S)NCCCSc1nnnn1C | 99 to 101
52 | Cc1c(O)ccc2c(O)c(C(=O)Nc3cccc(F)c3)c(=O)oc12 | 287 to 289
53 | O=C1NC(=O)c2cc(CCCCOc3ccccc3)ccc21 | 102 to 103

Further lines, results first:

Row | melting point [°C] | SMILES
54 | 286 to 287 | O=C1CCC(=O)N1Cc1nc2sc3c(c2c(-c2ccc(O)cc2)c1Cl)CCNC3
55 | 173 to 174 | CCc1nc(CO)c(CO)[nH]1
56 | 73 to 75 | COC(CCCNC(=O)CCCCC(=O)NCCCC(OC)OC)OC
57 | 168 to 169 | CC(C)(C)c1ncc([C@H]2[C@H](C(=O)O)C2(C)C)cn1 (relative stereo)
58 | 91 to 94 | C[C@@H](c1ccc(-c2ccn(C3CC3)c(=O)c2)cc1)N1CC[C@](CC(C)(C)O)(c2ccccc2)OC1=O
59 | 78 to 80 | CCOC(=O)C(=Cc1ccc(-c2ccc(Cl)cc2)o1)C(=O)OCC
60 | 123 to 124 | CC(C)Cc1ccc(-c2ncccc2S(=O)(=O)Oc2ccc([N+](=O)[O-])cc2)cc1
61 | 216 to 217 | O=C(O)CCC1c2ccccc2-c2ccccc21
62 | 114 to 115 | Cc1cc(C)n(C(=O)C2c3ccccc3Oc3ccccc32)n1
63 | 127 to 128 | COc1cc(-c2ccccc2)c(C)cc1CC(=O)O
64 | 97 to 98 | COC(=O)CCCc1cc2cc(Cl)ccc2n1S(=O)(=O)c1ccc(OC)cc1
65 | 253 to 255 | Cn1c(=O)nc(-c2ccccc2)c2cc3c(cc21)OCO3
66 | 85 to 87 | Cn1c(C(F)(F)F)cc(=O)n(C)c1=O
67 | 175 to 177 | Cc1nc(S(=O)(=O)CC(N)=O)nc(C)c1Br
68 | 84 to 85 | O=C1N(Cc2ccccn2)c2ccccc2C12COc1cc3c(cc12)CCO3 (stereo unspecified)
69 | 128 | CC(=O)OC1CSC(Oc2cncc(S(=O)(=O)c3ccc(F)cc3)c2)C(OC(C)=O)C1OC(C)=O (stereo unspecified)
70 | 75 to 77 | C=CCC(=C)C(O)C(NC=O)C(=O)OC (stereo unspecified)
71 | 197 to 198 | Cc1c(C)c2c(c(C)c1NC(=O)CC(C)(C)C)C(N1CCCC1)C(C)(C)O2 (stereo unspecified)
72 | 223 to 226 | O=C(O)C1=Cc2cc(Cl)cc(Cl)c2NC1C(F)(F)F (stereo unspecified)
73 | 43 to 45 | CCOC(=O)c1c(C(F)F)nc(C(F)(F)F)c(C(=O)OCC)c1-c1ccncc1
74 | 167 to 169 | COC(=O)c1ccc(OC)c(C=C2COc3ccc(OCc4ccccc4)cc3C2=O)c1
75 | 251 to 253 | Oc1ccc(C2OCC3(CO2)COC(c2ccc(O)cc2)OC3)cc1 (stereo unspecified)
76 | 118 to 120 | CCCCCCCNC(=O)c1cnc2cccc(C)n2c1=O
77 | 112 to 114 | CCN(c1ccc(C#N)cc1Cl)S(=O)(=O)c1ccc(C)cc1

Row | melting point [°C] | SMILES
78 | 210 to 213 | CCOc1ccc(C(=O)Nc2c(Cl)cncc2Cl)c2c3ccccc3n(Cc3ccccc3)c12
79 | 126 to 128 | Nc1cc([N+](=O)[O-])ccc1CO
80 | 146 to 147 | COc1ccc2c(c1)c(Cc1cc(=O)n(C)[nH]1)c(C)n2C(=O)c1ccc(Cl)cc1
81 | 166 to 168 | CCOC(=O)c1nc2ccc(I)cc2[nH]1
82 | 94 to 97 | CCN1CSCN(CC)C1=S
83 | 152 to 154 | CC(=O)Nc1ccc(-c2ccoc2)cc1[N+](=O)[O-]
84 | 174 to 175 | CC(C)(C(=O)O)C(=O)NCc1cn(C(c2ccccc2)(c2ccccc2)c2ccccc2)cn1
85 | 155 to 159 | CSCCC(NC(=O)OCc1ccccc1)C(=O)Nc1nncs1 (racemic)
86 | 61 to 65 | CC(C)(C)OC(=O)c1ccc([N+](=O)[O-])c(CBr)c1
87 | 176 to 177 | Cc1c(NC(=O)c2ccc(OCc3ccccc3)cc2F)ccc2cc(CN3CCCC3)cnc12
88 | 208 to 209 | CC(C)(N)c1ccc(-c2nc(Nc3ccc(-n4cncn4)cc3)ncc2C#N)cc1
89 | 222 to 224 | COc1cc(C(=O)NS(=O)(=O)c2ccccc2C)ccc1Cc1c(Cl)n(C)c2ccc(CCNC(=O)N(C)C)cc12
90 | 236 to 237 | Cc1cccc(C)c1NC(=O)Nc1sc2cc3c(cc2c1-c1ccccc1Cl)CCC3
91 | 189 to 191 | Cc1ccc(Sc2ccccc2C(=O)O)c([N+](=O)[O-])c1
92 | 169 to 172 | Cc1cn(-c2cc(NC(=O)c3cccc4cc(O)ccc34)cc(C(F)(F)F)c2)cn1
93 | 67 to 69 | C[Si]1(C)CCCCCCCC[Si](C)(C)O[Si](C)(C)CCCCCCCC[Si](C)(C)O1
94 | 228 to 230 | Cc1nc2ccccc2c(=O)n1NC(=O)Nc1ccc(Cl)cc1
95 | 213 | N#CC(Cc1ccc(Cl)cc1)c1c(Cl)cc(N2N=CCNC2=O)cc1Cl (stereo unspecified)
96 | 194 to 195 | COc1cc(S(=O)(=O)Nc2ccccc2)c(OC)cc1NC(=O)[C@@](C)(O)C(F)(F)F
97 | 112 to 114 | O=C(c1ccccc1)c1ccccc1NC(=O)C(Cl)Cl
98 | 275 | N#Cc1cc(NC(=O)c2cc3ccccc3s2)ccc1N1CCC(N2CCCCC2)CC1
99 | 117 to 120 | CN(C)C=C(C=O)c1ccc(Cl)cc1
100 | 134 to 138 | COC(=O)c1ccccc1C1=NC(C)(C(C)C)C(=S)N1 (stereo unspecified)
101 | 82 to 84 | CCCCCCOC(=O)C(=O)Nc1cc(C#N)cc(NC(=O)C(=O)OCCCCCC)c1Cl
